Legend:
[1] = tested on: velvetleaf; test: Test A postemergence; assay type: in vivo, Abutilon theophrasti
Outline: (§1)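 Both timings tested concurrently in loam/sand soil: preemergence by directed soil spray, postemergence on plants of 2–10 cm at the one- to two-leaf stage. Greenhouse holding period was approximately 10 days before visual injury assessment (0–100, 0 = no effect).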

[2] = tested on: barnyardgrass; test: Test A postemergence; assay type: in vivo, Echinochloa crus-galli; conditions: Postemergence
Outline: as §1

[3] = tested on: corn; test: Test A postemergence; assay type: in vivo, Zea mays
Outline: as §1

[4] = tested on: ducksalad; test: Test B flood; assay type: in vivo, Heteranthera limosa; conditions: 250 g ai/ha, visual rating on 0 to 100 scale (0 no effect, 100 complete control), 13 to 15 days
Outline: (§2)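 2-leaf plants; pots flooded 3 cm over soil; compound added to paddy water, depth kept constant. Greenhouse 13–15 d. Visual rating vs controls, 0–100 scale (100 = complete control); dash = no result.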

[5] = tested on: morningglory; test: Test A preemergence; assay type: in vivo, Ipomoea spp.; conditions: preemergence
Outline: as §1

[6] = tested on: corn; test: Test A preemergence; assay type: in vivo, Zea mays; conditions: preemergence
Outline: as §1

[7] = tested on: pigweed; test: Test A preemergence; assay type: in vivo, Amaranthus retroflexus; conditions: preemergence
Outline: as §1

[8] = tested on: barnyardgrass; test: Test B flood; assay type: in vivo, Echinochloa crus-galli; conditions: 250 g ai/ha, visual rating on 0 to 100 scale (0 no effect, 100 complete control), 13 to 15 days
Outline: as §2

[9] = tested on: morningglory; test: Test A postemergence; assay type: in vivo, Ipomoea spp.
Outline: as §1

[10] = tested on: velvetleaf; test: Test A preemergence; assay type: in vivo, Abutilon theophrasti; conditions: preemergence
Outline: as §1

[11] = tested on: barnyardgrass; test: Test A preemergence; assay type: in vivo, Echinochloa crus-galli; conditions: preemergence
Outline: as §1

[12] = tested on: wheat; test: Test A postemergence; assay type: in vivo, Triticum aestivum
Outline: as §1

[13] = tested on: crabgrass, large; test: Test A preemergence; assay type: in vivo, Digitaria sanguinalis; conditions: preemergence
Outline: as §1

[14] = tested on: pigweed; test: Test A postemergence; assay type: in vivo, Amaranthus retroflexus
Outline: as §1

[15] = tested on: crabgrass, large; test: Test A postemergence; assay type: in vivo, Digitaria sanguinalis
Outline: as §1

[16] = tested on: wheat; test: Test A preemergence; assay type: in vivo, Triticum aestivum; conditions: preemergence
Outline: as §1

[17] = tested on: foxtail, giant; test: Test A postemergence; assay type: in vivo, Setaria faberii
Outline: as §1

[18] = tested on: sedge, umbrella; test: Test B flood; assay type: in vivo, Cyperus difformis; conditions: 250 g ai/ha, visual rating on 0 to 100 scale (0 no effect, 100 complete control), 13 to 15 days
Outline: as §2

[19] = tested on: foxtail, giant; test: Test A preemergence; assay type: in vivo, Setaria faberii; conditions: preemergence
Outline: as §1

[20] = tested on: rice; test: Test B flood; assay type: in vivo, Oryza sativa; conditions: 250 g ai/ha, visual rating on 0 to 100 scale (0 no effect, 100 complete control), 13 to 15 days
Outline: as §2

[21] = Postemergence, 125 g ai/ha, 0 to 100 scale, 0 no effect, 100 complete control
[22] = Postemergence, 500 g ai/ha, 0 to 100 scale (0 no effect, 100 complete control)
[23] = 125 g ai/ha, 0 to 100 scale, 0 no effect, 100 complete control
[24] = 125 g ai/ha, visual injury approx. 10 days after treatment
[25] = 500 g ai/ha, visual injury after approx. 10 days, 0 to 100 scale (0 no effect, 100 complete control)
[26] = Postemergence, 500 g ai/ha, visual rating after approx. 10 days, 0 to 100 scale (0 no effect, 100 complete control)
[27] = postemergence, 125 g ai/ha, about 10 days, visual rating on 0 to 100 scale (0 no effect, 100 complete control)
[28] = 125 g ai/ha, visual injury, 0 to 100 scale, approx. 10 days

In the case of `CCc1cc(C(=O)NCC(F)(F)F)nn1Oc1cccc(C(F)(F)F)c1` [Compound 218], the “Velvetleaf plant response rating” value [1, 21] is reported as 0, the “Velvetleaf plant response rating” value [1, 22] is reported as 40 and the “Barnyardgrass plant response rating” value [2, 23] is reported as 0. For the same compound, the “Barnyardgrass plant response rating” value ([2]; 500 g ai/ha, 0 to 100 scale (0 no effect, 100 complete control)) was 20, the “Corn plant response rating” value [3, 21] was 10 and the “Corn plant response rating” value [3, 22] was 20. For the same compound, the “Plant response rating, Ducksalad” value [4] was 0, the “Morningglory plant response rating (0 to 100 scale)” value [5, 24] was 0 and the “Corn plant response rating (0 to 100 scale)” value [6, 24] was 0. For the same compound, the “Corn plant response rating” value [6, 25] was 0, the “Pigweed plant response rating (0 to 100 scale)” value [7, 24] was 0 and the “Plant response rating, Barnyardgrass” value [8] was 0. For the same compound, the “Morningglory plant response rating” value [9, 21] was 50, the “Morningglory plant response rating” value [9, 22] was 100 and the “Velvetleaf plant response rating (0 to 100 scale)” value [10, 24] was 0. For the same compound, the “Barnyardgrass plant response rating (0 to 100 scale, 0 is no effect, 100 is complete control)” value [11, 24] was 0, the “Barnyardgrass plant response rating” value [11, 25] was 40 and the “Wheat plant response rating” value [12, 21] was 0. For the same compound, the “Wheat plant response rating” value [12, 22] was 10, the “Crabgrass, Large plant response rating (0 to 100 scale)” value [13, 24] was 10 and the “Crabgrass, Large plant response rating” value [13, 25] was 80. The “Pigweed plant response rating” value [14, 21] was 50, the “Pigweed plant response rating” value [14, 22] was 80 and the “Crabgrass, Large plant response rating” value [15, 21] was 20. For the same compound, the “Crabgrass, Large plant response rating” value [15, 22] was 40, the “Wheat plant response rating (0 to 100 scale)” value [16, 24] was 0 and the “Foxtail, Giant plant response rating” value [17, 21] was 20. For the same compound, the “Foxtail, Giant plant response rating” value [17, 22] was 30, the “Plant response rating, Sedge, Umbrella” value [18] was 0 and the “Foxtail, Giant plant response rating (0 to 100 scale)” value [19, 24] was 0. For the same compound, the “Foxtail, Giant plant response rating” value [19, 25] was 40 and the “Plant response rating, Rice” value [20] was 0.

For `CCCc1cc(C(=O)Nc2ccc(F)cc2)nn1Oc1ccnc(C(F)(F)F)c1` [Compound 94], the “Velvetleaf plant response rating” value [1, 26] was 0, the “Velvetleaf plant response rating” value [1, 27] was 0 and the “Barnyardgrass plant response rating” value [2, 23] was 0. For the same compound, the “Barnyardgrass plant response rating” value ([2]; 500 g ai/ha, visual rating after approx. 10 days, 0 to 100 scale (0 no effect, 100 complete control)) was 0, the “Corn plant response rating” value [3, 26] was 0 and the “Corn plant response rating” value [3, 27] was 0. For the same compound, the “Plant response rating, Ducksalad” value [4] was 0, the “Morningglory plant response rating” value [5, 28] was 0 and the “Morningglory plant response rating” value [5, 25] was 0. The “Corn plant response rating” value [6, 28] was 0, the “Corn plant response rating” value [6, 25] was 0 and the “Pigweed plant response rating” value [7, 28] was 0. For the same compound, the “Pigweed plant response rating” value [7, 25] was 0, the “Plant response rating, Barnyardgrass” value [8] was 0 and the “Morningglory plant response rating” value [9, 26] was 0. For the same compound, the “Morningglory plant response rating” value [9, 27] was 0, the “Velvetleaf plant response rating” value [10, 28] was 0 and the “Velvetleaf plant response rating” value [10, 25] was 0. The “Barnyardgrass plant response rating” value [11, 28] was 0, the “Barnyardgrass plant response rating” value [11, 25] was 0 and the “Wheat plant response rating” value [12, 26] was 0. For the same compound, the “Wheat plant response rating” value [12, 27] was 0, the “Crabgrass, Large plant response rating” value [13, 28] was 0 and the “Crabgrass, Large plant response rating” value [13, 25] was 0. The “Pigweed plant response rating” value [14, 26] was 0, the “Pigweed plant response rating” value [14, 27] was 0 and the “Crabgrass, Large plant response rating” value [15, 26] was 0. For the same compound, the “Crabgrass, Large plant response rating” value [15, 27] was 0, the “Wheat plant response rating” value [16, 28] was 0 and the “Wheat plant response rating” value [16, 25] was 0. The “Foxtail, Giant plant response rating” value [17, 26] was 0, the “Foxtail, Giant plant response rating” value [17, 27] was 0 and the “Plant response rating, Sedge, Umbrella” value [18] was 0. For the same compound, the “Foxtail, Giant plant response rating” value [19, 28] was 0, the “Foxtail, Giant plant response rating” value [19, 25] was 0 and the “Plant response rating, Rice” value [20] was 0.

Reference: patent publication US20150105252A1, “SUBSTITUTED PYRAZOLES AS HERBICIDES” (E I DU PONT DE NEMOURS AND COMPANY, priority 2013, published 2015)
